The NIST ThermoML archive (doi:10.1021/je800842z)
± gives the expanded uncertainty stated by the source.

Tests used:
[1] = 293.15 K; 101.33 kPa; Liquid; Pycnometric method
[2] = refractive index (Na D-line) (dimensionless); settings: 293.15 K; 101.33 kPa; Liquid; Standard Abbe refractometry

Row | Structure (SMILES) | mass density [1] | refractive index [2]
1 | c1ccccc1 [benzene] | 879 ± 1 kg/m3 | 1.5011 ± 0.0004
2 | CCOC(C)=O [ethyl acetate] | 900 ± 1 kg/m3 | 1.3588 ± 0.0004
3 | Cc1ccccc1 [toluene] | 866 ± 1 kg/m3 | 1.4967 ± 0.0004
